From patent publication EP0054756A2, “Antibacterial benzylpyrimidines” (THE WELLCOME FOUNDATION LIMITED, priority 1980, dated 1982)
Converted amounts (≈) assume the structure as drawn. “And” between values parts separate entries of the source, which are not always exact repeats. Equal entries are not always repeated. Structures can show the parent of a compound that is named as a salt. Where two headings read alike, the source gives them in different places.

How the values were obtained:
St. pyogenes = assay: In vitro antibacterial activity (MIC); assay type: cell-based; details: for MIC: Streptococcus pyogenes
Strep.Faecalis CN 478 = assay: In vitro antibacterial activity (MIC); assay type: cell-based; details: for MIC: Enterococcus faecalis, CN478
Staph.aureus CN 491 = assay: In vitro antibacterial activity (MIC); assay type: cell-based; details: for MIC: Staphylococcus aureus
E. coli CN 314 = assay: In vitro antibacterial activity (MIC); assay type: cell-based; details: Escherichia coli, CN314
Staphylococcus aureus [1] = assay: In vitro MIC against bovine mastitis strains; assay type: cell-based; details: read-out: Approximate MIC
Text: (§1) All organisms were isolated from the bovine udder.

Streptococcus agalactiae = assay: In vitro MIC against bovine mastitis strains; assay type: cell-based; details: read-out: Approximate MIC
Text: as §1

[2] = tested on: Streptococcus dysgalactiae; assay: In vitro MIC against bovine mastitis strains; assay type: cell-based; details: read-out: Approximate MIC
Text: as §1

Streptococcus uberis = assay: In vitro MIC against bovine mastitis strains; assay type: cell-based; details: Internal Ref. No. 359, isolated from the bovine udder, read-out: Approximate MIC
Text: as §1

Staphylococcus aureus [3] = assay: In vitro MIC against bovine mastitis strains; assay type: cell-based; details: "OXFORD", Internal Ref. No. 6571, read-out: Approximate MIC
Dihydrofolate reductase [4] = target: Dihydrofolate reductase (Neisseria gonorrhoeae, UniProt P04174); assay: biochemical; details: N. gonorrhea enzyme; read-out: Dihydrofolate reductase inhibition, I50 x 10^8
Dihydrofolate reductase [5] = target: Dihydrofolate reductase (Escherichia coli, UniProt P0ABQ4); assay: Dihydrofolate reductase inhibition; assay type: biochemical, E. coli
Dihydrofolate reductase [6] = target: T1, Dihydrofolate reductase (Rattus norvegicus, UniProt Q920D2); assay: Dihydrofolate reductase inhibition; assay type: biochemical, Rat liver
T1 construct: Rat liver; from tissue; host or cells: rat liver
T1 sequence (Q920D2 1-187): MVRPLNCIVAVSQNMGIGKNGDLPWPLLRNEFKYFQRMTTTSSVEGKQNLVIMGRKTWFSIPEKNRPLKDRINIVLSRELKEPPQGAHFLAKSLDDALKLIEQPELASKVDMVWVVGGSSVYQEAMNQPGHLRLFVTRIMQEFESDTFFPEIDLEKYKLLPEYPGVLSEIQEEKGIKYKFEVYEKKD

N. gonorrhea [7] = assay: In vitro antibacterial activity versus TMP, Wellcome test; assay type: cell-based; details: activity relative to trimethoprim
N. gonorrhea [8] = assay: In vitro antibacterial activity versus TMP, Difco test; assay type: cell-based; details: activity relative to trimethoprim
Dihydrofolate reductase [9] = target: Dihydrofolate reductase (Plasmodium berghei, UniProt Q27713); assay: biochemical; details: P. berghei enzyme; read-out: Dihydrofolate reductase inhibition, I50 x 10^8
[10] = LD50 intraperitoneal in male rats; details: rat, in vivo, ip
Description: The LD50's ( expressed in rng/kg intraperitoneal) of two compounds of the present invention were determined in male rats.

[11] = Internal Ref. No. 316, isolated from the bovine udder
[12] = Internal Ref. No. 317, isolated from the bovine udder
[13] = Internal Ref. No. 348, isolated from the bovine udder
[14] = Internal Ref. No. 349, isolated from the bovine udder
[15] = Internal Ref. No. 352, isolated from the bovine udder
[16] = Internal Ref. No. 353, isolated from the bovine udder
[17] = Internal Ref. No. 321, isolated from the bovine udder
[18] = Internal Ref. No. 371, isolated from the bovine udder
[19] = Internal Ref. No. 366, isolated from the bovine udder
[20] = Internal Ref. No. 367, isolated from the bovine udder
[21] = read-out: MIC St. pyogenes CN 10
[22] = read-out: MIC St. pyogenes S3640
[23] = Rat liver enzyme, read-out: Dihydrofolate reductase inhibition, I50 x 10^8
[24] = E. coli enzyme, read-out: Dihydrofolate reductase inhibition, I50 x 10^8

Molecule | MIC (Strep.Faecalis CN 478) | MIC (E. coli CN 314) | MIC (Staphylococcus aureus [1]; [11]) | MIC (Staphylococcus aureus [1]; [12]) | MIC (Staphylococcus aureus [1]; [13]) | MIC (Staphylococcus aureus [1]; [14]) | MIC (Staphylococcus aureus [1]; [15]) | MIC (Staphylococcus aureus [1]; [16]) | MIC (Streptococcus agalactiae; [17]) | MIC (Streptococcus agalactiae; [18]) | MIC [2, 19] | MIC [2, 20] | MIC (Streptococcus uberis) | MIC (Staphylococcus aureus [3]) | MIC (St. pyogenes; [21]) | MIC (St. pyogenes; [22]) | MIC (Staph.aureus CN 491; CN491) | IC50 (Dihydrofolate reductase [4]) | IC50 (Dihydrofolate reductase [5]) | IC50 (Dihydrofolate reductase [6]) | other results
COc1cc(Cc2cnc(N)nc2N)cc(OC)c1OC [Trimethoprim, reference compound] | 0.1 µg/mL (≈ 0.344 µM) | 0.1 µg/mL (≈ 0.344 µM) | 1 µM (≈ 0.29 µg/mL) | 0.33 µM (≈ 0.0958 µg/mL) | 1 µM (≈ 0.29 µg/mL) | 1 µM (≈ 0.29 µg/mL) | 3.3 µM (≈ 0.958 µg/mL) | 1 µM (≈ 0.29 µg/mL) | 1 µM (≈ 0.29 µg/mL) | 3.3 µM (≈ 0.958 µg/mL) | 3.3 µM (≈ 0.958 µg/mL) | 1 µM (≈ 0.29 µg/mL) | 10 µM (≈ 2.9 µg/mL) | 1 µM (≈ 0.29 µg/mL) | – | – | – | – | – | – | MIC (St. pyogenes; strain CN 10, cell prints compound/trimethoprim, read-out: MIC St. pyogenes CN 10): 0.5 µg/mL (≈ 1.72 µM); MIC St. pyogenes CN 10 (St. pyogenes; strain CN 10, cell prints compound/trimethoprim): 0.3/0.3 ug/ml and 0.3 ug/ml; MIC Strep.Faecalis CN 478 (Strep.Faecalis CN 478; strain CN 478, cell prints compound/trimethoprim): 0.1 µg/mL (≈ 0.344 µM); MIC (Staph.aureus CN 491; CN491, strain CN 491, cell prints compound/trimethoprim): 0.5 µg/mL (≈ 1.72 µM); MIC Staph.aureus CN 491 (Staph.aureus CN 491; strain CN 491, cell prints compound/trimethoprim): 0.3 ug/ml and 0.3/0.3 ug/ml and 0.5/0.5 ug/ml
COc1cc(Cc2cnc(N)nc2N)cc(OCCSCc2ccccc2)c1OC [Example 15, 2,4-Diamino-5-(3,4-dimethoxy-5-(2-(benzylthio)ethoxy)benzyl)pyrimidine] | 0.1 µg/mL (≈ 0.234 µM) | 0.5 µg/mL (≈ 1.17 µM) | – | – | – | – | – | – | – | – | – | – | – | – | 0.5 µg/mL (≈ 1.17 µM) | 0.5 µg/mL (≈ 1.17 µM) | 0.05 µg/mL (≈ 0.117 µM) | 18 nM | 2 nM | 47000 nM | –
COc1cc(Cc2cnc(N)nc2N)cc(OCCCOc2ccccc2)c1OC [compound 5, 2,4-Diamino-5-(3,4-dimethoxy-5-(3-phenoxypropoxy)benzyl)pyrimidine] | 0.1 µg/mL (≈ 0.244 µM) | 1 µg/mL (≈ 2.44 µM) | – | – | – | – | – | – | – | – | – | – | – | – | 0.3 µg/mL (≈ 0.731 µM) | 0.3 µg/mL (≈ 0.731 µM) | 0.1 µg/mL (≈ 0.244 µM) | 32 nM | 37 nM | 80000 nM | Act., vs TMP N. gonorrhea Wellcome test (N. gonorrhea [7]): 4.12; Act., vs TMP N. gonorrhea Difco test (N. gonorrhea [8]): 11.28; IC50 (Dihydrofolate reductase [9]): 150 nM
COc1cc(Cc2cnc(N)nc2N)cc(OCCCc2ccccc2)c1OC [compound 1, 2,4-Diamino-5-(3,4-dimethoxy-5-(3-phenylpropoxy)benzyl)pyrimidine] | 0.1 µg/mL (≈ 0.254 µM) | 1 µg/mL (≈ 2.54 µM) | 0.025 µM (≈ 0.00986 µg/mL) | 0.025 µM (≈ 0.00986 µg/mL) | 0.025 µM (≈ 0.00986 µg/mL) | 0.025 µM (≈ 0.00986 µg/mL) | 0.075 µM (≈ 0.0296 µg/mL) | 0.025 µM (≈ 0.00986 µg/mL) | 0.075 µM (≈ 0.0296 µg/mL) | 0.75 µM (≈ 0.296 µg/mL) | 0.75 µM (≈ 0.296 µg/mL) | 0.25 µM (≈ 0.0986 µg/mL) | 2.5 µM (≈ 0.986 µg/mL) | 0.025 µM (≈ 0.00986 µg/mL) | 0.3 µg/mL (≈ 0.761 µM) | 0.3 µg/mL (≈ 0.761 µM) | 0.03 µg/mL (≈ 0.0761 µM) | 15 nM | 4.8 nM | 94000 nM | LD50 [10]: > 100 mg/kg; Act., vs TMP N. gonorrhea Wellcome test (N. gonorrhea [7]): 5.46; Act., vs TMP N. gonorrhea Difco test (N. gonorrhea [8]): 12.81; IC50 (Dihydrofolate reductase [9]): 100 nM
CCc1cc(Cc2cnc(N)nc2N)cc(CC)c1OCCOCc1ccccc1 [Example 6, 2,4-Diamino-5-(3,5-diethyl-4-(2-benzyloxyethoxy)benzyl)pyrimidine] | 0.3 µg/mL (≈ 0.738 µM) | 10 µg/mL (≈ 24.6 µM) | – | – | – | – | – | – | – | – | – | – | – | – | 3 µg/mL (≈ 7.38 µM) | 1 µg/mL (≈ 2.46 µM) | 3 µg/mL (≈ 7.38 µM) | 48 nM | – | – | Act., vs TMP N. gonorrhea Wellcome test (N. gonorrhea [7]): 0.35; IC50 (Dihydrofolate reductase [6]; [23]): 26000 nM; IC50 (Dihydrofolate reductase [9]): 34 nM
COc1cc(Cc2cnc(N)nc2N)cc(OCCOCc2ccccc2)c1OC [compound 4, 2,4-Diamino-5-(3,4-dimethoxy-5-(2-benzyloxyethoxy)benzyl)pyrimidine] | – | – | 0.25 µM (≈ 0.103 µg/mL) | 0.075 µM (≈ 0.0308 µg/mL) | 0.25 µM (≈ 0.103 µg/mL) | 0.075 µM (≈ 0.0308 µg/mL) | 0.25 µM (≈ 0.103 µg/mL) | 0.075 µM (≈ 0.0308 µg/mL) | 0.25 µM (≈ 0.103 µg/mL) | 2.5 µM (≈ 1.03 µg/mL) | 3.3 µM (≈ 1.35 µg/mL) | 1 µM (≈ 0.41 µg/mL) | 2.5 µM (≈ 1.03 µg/mL) | 0.075 µM (≈ 0.0308 µg/mL) | – | – | – | 78 nM | 5.4 nM | 300000 nM | –
2,4-dimethoxy-5-(dime-thoxy-5-(3-p-aminophenyl-propoxy)benzyl)pyrimidine | – | – | – | – | – | – | – | – | – | – | – | – | – | – | – | – | – | 29 nM | – | – | IC50 (Dihydrofolate reductase [5]; [24]): 7.2 nM; IC50 (Dihydrofolate reductase [6]; [23]): 81000 nM
COc1cc(Cc2cnc(N)nc2N)cc(OCCCCOc2ccccc2)c1OC [Example 10, 2,4-Diamino-5-(3,4-dimethoxy-5-(4-phenoxybutoxy)benzyl)pyrimidine hydrochloride] | – | – | – | – | – | – | – | – | – | – | – | – | – | – | – | – | – | 19 nM | 4 nM | 74000 nM | –
2,4-diamino-5-(3,4-dime-thoxy-5-(3-p-nitrophenyl-propoxy)benzyl)pyrimidine | – | – | – | – | – | – | – | – | – | – | – | – | – | – | – | – | – | – | – | – | IC50 (Dihydrofolate reductase [5]; [24]): 17 nM; IC50 (Dihydrofolate reductase [6]; [23]): 25000 nM
COc1cc(Cc2cnc(N)nc2N)cc(OCCCCc2ccccc2)c1OC [compound 3, 2,4-Diamino-5-(3,4-dimethoxy-5-(4-phenylbutoxy)benzyl)pyrimidine] | 0.1 µg/mL (≈ 0.245 µM) | 3 µg/mL (≈ 7.34 µM) | 0.075 µM (≈ 0.0306 µg/mL) | 0.025 µM (≈ 0.0102 µg/mL) | 0.075 µM (≈ 0.0306 µg/mL) | 0.075 µM (≈ 0.0306 µg/mL) | 0.075 µM (≈ 0.0306 µg/mL) | 0.025 µM (≈ 0.0102 µg/mL) | 0.25 µM (≈ 0.102 µg/mL) | 0.25 µM (≈ 0.102 µg/mL) | 0.75 µM (≈ 0.306 µg/mL) | 0.75 µM (≈ 0.306 µg/mL) | 0.25 µM (≈ 0.102 µg/mL) | 0.025 µM (≈ 0.0102 µg/mL) | 0.1 µg/mL (≈ 0.245 µM) | 0.1 µg/mL (≈ 0.245 µM) | 0.03 µg/mL (≈ 0.0734 µM) | 18 nM | 2.3 nM | 43000 nM | Act., vs TMP N. gonorrhea Wellcome test (N. gonorrhea [7]): 1.54; Act., vs TMP N. gonorrhea Difco test (N. gonorrhea [8]): 11.35; IC50 (Dihydrofolate reductase [9]): 11 nM
COc1cc(Cc2cnc(N)nc2N)cc(OCCSc2ccccc2)c1OC [Example 14, 2,4-Diamino-5-(3,4-dimethoxy-5-(2-(phenylthio)ethoxy)benzyl)pyrimidine] | 0.5 µg/mL (≈ 1.21 µM) | 1 µg/mL (≈ 2.42 µM) | – | – | – | – | – | – | – | – | – | – | – | – | 0.5 µg/mL (≈ 1.21 µM) | 0.5 µg/mL (≈ 1.21 µM) | 0.5 µg/mL (≈ 1.21 µM) | 11.4 nM | 5.3 nM | 37000 nM | –
